The structures appear in SMILES notation.

Consider 1 molecule from patent US12478677B2, “Tunable luminescent organic salts for enhanced imaging and photodynamic therapy” (BOARD OF TRUSTEES OF MICHIGAN STATE UNIVERSITY, priority 2017, dated 2025).

Data set [1] deals with A549 cells. The experiment in a line: Luminescent imaging of cells. The data set is classed as cell-based, human. The procedure: Images are obtained using a Leica DMi8 microscope with a PE4000 LED light source, DFC9000GT camera, and LAS X imaging system. A549 cells are seeded in 3 cm tissue culture plates at a density of 50,000 cells per well in DMEM media containing luminescent organic salts at indicated concentrations. The cells incubate for 2 days at 37° C. with 5% CO2 until the day of imaging. For live cell imaging, the media is aspirated and replaced with fresh dye-free media to reduce background noise. For fixed cell imaging, cells are grown on 0.5 mm coverslips within 3 cm plates. The media is aspirated and the cells are washed with phosphate buffered saline (PBS) before being submerged in cold methanol and incubated at −20° C. for 15 minutes. The cells are then washed with PBS 5 times, and the coverslips are then mounted to slides using DAPI with Fluoromount-G.

A short description of data set [2]: Salt integrity and aggregation in cell media (mass spectrometry, electron microscopy, UV-Vis). The data set is classed as physicochemical. Particulars: high resolution mass spectrometry, electron microscopy, UV-Vis spectroscopy. An excerpt:
FIGS. 7A-7C. […] Organic salts were first dissolved in DMSO and then diluted in water, forming nanoparticles. […] Combinations of H- and J-aggregation of organic salts can be seen by blue-shifted peaks (lower wavelength) and red-shifted peaks (higher wavelength), respectively. The nanoparticles with small hard anions redissolve in cell media likely due to sterics. […] This is achieved by cation-anion pairs of luminescent organic salts that can be modulated to be either non-toxic for enhanced imaging, or phototoxic for improved PDT. […] IR polymethine cyanine dyes, which have been used as effective theranostics are described. […] This is thought to occur through a mechanism mitigated by tumor vascularization, increased retention in cancer cells, and mitochondrial depolarization. Once in the cell, they accumulate in the mitochondria and lysosomes, where irradiation induces generation of cytotoxic oxygen species. A strategy is described for preventing or inhibiting salt dissociation in cells: aggregates are formed via introduction of the salt into an aqueous media by a solvent vehicle, forming particles with diameters of about 5 nm in size with no precipitation observed. […] This is confirmed by high resolution mass spectrometry, electron microscopy, and UV-Vis spectroscopy. […] Normalized absorption data are sown in FIGS. 7A, 7B, and 7C. This is likely due to steric effects, where if the counterion radius is too small it is not able to protect the nanoparticle stability. This can be characterized by the volume-averaged effective spherical radius of the counterions, where the cutoff is at about 0.275 nm.

In the case of `CCN1C(=CC=C2CCCC(C=CC3=[N+](CC)c4ccc5ccccc5c4C3(C)C)=C2Cl)C(C)(C)c2c1ccc1ccccc21.Fc1c(F)c(F)c([B-](c2c(F)c(F)c(F)c(F)c2F)(c2c(F)c(F)c(F)c(F)c2F)c2c(F)c(F)c(F)c(F)c2F)c(F)c1F` [CyTPFB], the “Cellular localization versus concentration in media, in words” value in data set [1] was “localize inside cells proportionally to the initial introduced concentration in the cellular media”. In data set [2], the “Integrity of salt pairing in cellular environments” value is given as “maintained in cellular environments”.
